Measurements from ChEMBL document CHEMBL4680312 (Bioorg Med Chem, 2021).
Activity calls are given as the source filed them. The rule behind the calls is not given here.

Tests used:
Format in all cases: cell-based
Histamine H3 receptor [1] = target: T1, Histamine H3 receptor (Homo sapiens, UniProt Q9Y5N1); test: Displacement of [3H]-Histamine from human histamine 3 receptor transfected in HEK293T cells incubated for 16 hrs by liquid scintillation counter analysis
Histamine H3 receptor [2] = target: T1, Histamine H3 receptor; test: Activation of human histamine 3 receptor transfected in human HEK293T cells at 10 uM measured after 5 mins by BRET assay
Histamine H3 receptor [3] = target: T1, Histamine H3 receptor; test: Antagonist activity at human histamine 3 receptor transfected in human HEK293T cells assessed as reduction in histamine-induced activity at 10 uM incubated for 30 mins followed by histamine stimulation and measured immediately by BRET assay
Histamine H4 receptor [4] = target: T2, Histamine H4 receptor (Homo sapiens, UniProt Q9H3N8); test: Displacement of [3H]-Histamine from human histamine 4 receptor transfected in HEK293T cells incubated for 16 hrs by liquid scintillation counter analysis
T2 sequence (Q9H3N8 whole entry): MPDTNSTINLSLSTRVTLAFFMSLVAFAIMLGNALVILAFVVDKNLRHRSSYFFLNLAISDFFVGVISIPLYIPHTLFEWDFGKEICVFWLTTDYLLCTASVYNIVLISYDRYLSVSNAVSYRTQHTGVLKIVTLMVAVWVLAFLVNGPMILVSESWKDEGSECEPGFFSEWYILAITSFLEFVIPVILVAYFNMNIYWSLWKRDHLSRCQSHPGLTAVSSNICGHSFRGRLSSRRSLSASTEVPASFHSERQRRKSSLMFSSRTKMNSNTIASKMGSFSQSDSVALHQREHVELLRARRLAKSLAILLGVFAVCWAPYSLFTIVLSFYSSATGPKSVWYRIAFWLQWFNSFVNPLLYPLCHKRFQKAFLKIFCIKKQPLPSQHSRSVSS

Histamine H4 receptor [5] = target: T2, Histamine H4 receptor; test: Antagonist activity at human histamine 4 receptor transfected in human HEK293T cells assessed as reduction in histamine-induced activity at 10 uM incubated for 30 mins followed by histamine stimulation and measured immediately by BRET assay; conditions: filed as antagonist
Histamine H4 receptor [6] = target: T2, Histamine H4 receptor; test: Activation of human histamine 4 receptor transfected in human HEK293T cells measured after 5 mins by BRET assay; conditions: filed as partial agonist, dose 0.01-10 µM

T1 sequence (Q9Y5N1 whole entry): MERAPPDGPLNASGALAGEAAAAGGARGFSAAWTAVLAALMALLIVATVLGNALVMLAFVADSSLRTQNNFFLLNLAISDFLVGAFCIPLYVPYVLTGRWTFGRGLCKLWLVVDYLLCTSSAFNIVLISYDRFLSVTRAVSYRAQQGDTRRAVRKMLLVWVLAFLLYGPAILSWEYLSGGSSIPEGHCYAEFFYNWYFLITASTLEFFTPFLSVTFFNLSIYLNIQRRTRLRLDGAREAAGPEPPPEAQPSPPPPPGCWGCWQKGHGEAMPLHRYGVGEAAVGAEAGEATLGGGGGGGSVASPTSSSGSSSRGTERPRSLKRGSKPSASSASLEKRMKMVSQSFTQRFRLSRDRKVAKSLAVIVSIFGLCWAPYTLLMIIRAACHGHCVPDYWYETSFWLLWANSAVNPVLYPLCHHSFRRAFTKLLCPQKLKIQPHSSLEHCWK

SMILES | Ki (Histamine H3 receptor [1]) [µM] | Activity (Histamine H3 receptor [2]) | Activity (Histamine H3 receptor [3]) | Ki (Histamine H4 receptor [4]) [µM] | Activity (Histamine H4 receptor [5]) | Activity (Histamine H4 receptor [6]) | Activity (Histamine H3 receptor [3]; filed as antagonist)
c1ccc(-c2ccc3c(c2)CC(CN2CCNCC2)O3)cc1 (stereo unspecified) | 0.631 | inactive | inactive | > 10 | – | – | –
c1ccc(CN2CCN(CC3Cc4ccccc4O3)CC2)cc1 (stereo unspecified) | > 10 | – | – | > 10 | – | – | –
CN1CCN(C(=O)c2cc3ccccc3o2)CC1 | > 10 | – | – | 0.0794 | Active | Dose-dependent effect | –
CN1CCN(CC2Cc3cc(-c4ccccc4)ccc3O2)CC1 (stereo unspecified) | 0.0398 | inactive | – | > 10 | – | – | Active
C=CCN1CCN(CC2Cc3ccccc3O2)CC1 (stereo unspecified) | – | – | – | > 10 | – | – | –
CC(C)(C)c1ccc2c(c1)CC(CN1CCN(c3ccccc3)CC1)O2 (stereo unspecified) | > 10 | inactive | inactive | > 10 | – | – | –
CN1CCN(CC2Cc3cc(C(C)(C)C)ccc3O2)CC1 (stereo unspecified) | 0.794 | – | – | > 10 | – | – | –
CN1CCN(Cc2ccc3c(c2)CCO3)CC1 | > 10 | – | – | > 10 | – | – | –
COc1ccc2c(c1)CC(CN1CCN(C)CC1)O2 (stereo unspecified) | 0.794 | – | – | > 10 | – | – | –
CN1CCN(CC2Cc3cc(Cl)ccc3O2)CC1 (stereo unspecified) | 0.794 | – | – | 0.794 | – | – | –
O=C(c1cc2ccccc2o1)N1CCN(c2ccccc2)CC1 | > 10 | – | – | > 10 | – | – | –
CN1CCN(Cc2cc3ccccc3o2)CC1 | > 10 | – | – | > 10 | – | – | –
C=CCN1CCN(CC2Cc3cc(-c4ccccc4)ccc3O2)CC1 (stereo unspecified) | 0.00398 | inactive | – | > 10 | – | – | Active
CN1CCN(C(=O)c2nc3ccc(Cl)cc3[nH]2)CC1 | – | – | – | – | Active | – | –
c1ccc(-c2ccc3c(c2)CC(CN2CCN(c4ccccc4)CC2)O3)cc1 (stereo unspecified) | > 10 | – | – | > 10 | – | – | –
C=CCN1CCN(CC2Cc3cc(C(C)(C)C)ccc3O2)CC1 (stereo unspecified) | 0.0158 | inactive | – | > 10 | – | – | Active
C=CCN1CCN(CC2Cc3cc(OC)ccc3O2)CC1 (stereo unspecified) | 0.00631 | inactive | – | > 10 | – | – | Active
